Laboratory results published in ChEMBL document CHEMBL1152470, “Antimicrobial activities of tigecycline and other broad-spectrum antimicrobials tested against serine carbapenemase- and metallo-beta-lactamase-producing Enterobacteriaceae: report from the SENTRY Antimicrobial Surveillance Program” (2008).
In brackets after ≈: the same amount, converted by molar mass.

What was measured:
Assay type in all cases: functional
Enterobacteriaceae [1] = experiment: Antimicrobial activity against carbapenemase producing Enterobacteriaceae by CLSI broth microdilution method
Enterobacteriaceae [2] = experiment: Antimicrobial activity against carbapenemase producing Enterobacteriaceae assessed as susceptible isolates by CLSI breakpoint assay
Enterobacteriaceae [3] = experiment: Antimicrobial activity against carbapenemase producing Enterobacteriaceae assessed as resistant isolates by CLSI breakpoint assay
Klebsiella sp. [4] = experiment: Antimicrobial activity against Klebsiella sp. by CLSI broth microdilution method
Klebsiella sp. [5] = experiment: Antimicrobial activity against Klebsiella sp. assessed as susceptible isolates by CLSI breakpoint assay
Klebsiella sp. [6] = experiment: Antimicrobial activity against Klebsiella sp. assessed as resistant isolates by CLSI breakpoint assay
Enterobacter sp. [7] = experiment: Antimicrobial activity against carbapenemase producing Enterobacter sp. by CLSI broth microdilution method
Enterobacter sp. [8] = experiment: Antimicrobial activity against carbapenemase producing Enterobacter sp. assessed as susceptible isolates by CLSI breakpoint assay
Enterobacter sp. [9] = experiment: Antimicrobial activity against carbapenemase producing Enterobacter sp. assessed as resistant isolates by CLSI breakpoint assay
Enterobacteriaceae [10] = experiment: Antimicrobial activity against Enterobacteriaceae
Proteus mirabilis = experiment: Antimicrobial activity against Proteus mirabilis
Klebsiella pneumoniae [11] = experiment: Antimicrobial activity against VIM1 carbapenemase producing Klebsiella pneumoniae […]
Klebsiella oxytoca [12] = experiment: Antimicrobial activity against KPC2/3 carbapenemase producing Klebsiella oxytoca […]
Klebsiella oxytoca [13] = experiment: Antimicrobial activity against KPC2 carbapenemase producing Klebsiella oxytoca […]
Klebsiella oxytoca [14] = experiment: Antimicrobial activity against KPC3 carbapenemase producing Klebsiella oxytoca […]
Citrobacter freundii [15] = experiment: Antimicrobial activity against KPC2/3 carbapenemase producing Citrobacter freundii […]
Citrobacter freundii [16] = experiment: Antimicrobial activity against KPC2 carbapenemase producing Citrobacter freundii […]
Citrobacter freundii [17] = experiment: Antimicrobial activity against KPC3 carbapenemase producing Citrobacter freundii […]
Enterobacter cloacae [18] = experiment: Antimicrobial activity against KPC2/3 carbapenemase producing Enterobacter cloacae […]
Enterobacter cloacae [19] = experiment: Antimicrobial activity against KPC2 carbapenemase producing Enterobacter cloacae […]
Enterobacter cloacae [20] = experiment: Antimicrobial activity against NMC-A carbapenemase producing Enterobacter cloacae […]
Enterobacter cloacae [21] = experiment: Antimicrobial activity against IMP1 carbapenemase producing Enterobacter cloacae […]
Enterobacter cloacae [22] = experiment: Antimicrobial activity against VIM1 carbapenemase producing Enterobacter cloacae […]
Pluralibacter gergoviae = experiment: Antimicrobial activity against KPC3 carbapenemase producing Enterobacter gergoviae […]
Enterobacter hormaechei = experiment: Antimicrobial activity against KPC2 carbapenemase producing Enterobacter hormaechei […]
Serratia marcescens [23] = experiment: Antimicrobial activity against KPC2/3 carbapenemase producing Serratia marcescens […]
Serratia marcescens [24] = experiment: Antimicrobial activity against SME1 carbapenemase producing Serratia marcescens […]
Escherichia coli = experiment: Antimicrobial activity against KPC2/3 carbapenemase producing Escherichia coli […]
Klebsiella pneumoniae [25] = experiment: Antimicrobial activity against KPC2/3 carbapenemase producing Klebsiella pneumoniae […]
Klebsiella pneumoniae [26] = experiment: Antimicrobial activity against KPC2 carbapenemase producing Klebsiella pneumoniae […]

Which results are given for `C[C@@H](O)[C@H]1C(=O)N2C(C(=O)O)=C(S[C@@H]3CN[C@H](C(=O)Nc4cccc(C(=O)O)c4)C3)[C@H](C)[C@H]12`?
MIC50 (Enterobacteriaceae [1]): 8 µg/mL (≈ 16.8 µM); MIC90 (Enterobacteriaceae [1]): 32 µg/mL (≈ 67.3 µM); Activity (Enterobacteriaceae [2]): 7.7%; Activity (Enterobacteriaceae [3]): 73.1%; MIC50 (Klebsiella sp. [4]): > 8 µg/mL; MIC90 (Klebsiella sp. [4]): > 32 µg/mL; Activity (Klebsiella sp. [5]): 5%; Activity (Klebsiella sp. [6]): 83.3%; MIC50 (Enterobacter sp. [7]): > 8 µg/mL; MIC90 (Enterobacter sp. [7]): > 16 µg/mL; Activity (Enterobacter sp. [8]): 8.3%; Activity (Enterobacter sp. [9]): 12.5%

How did the MIC50 (Enterobacteriaceae [1]) turn out when `NCC[C@H](O)C(=O)N[C@@H]1C[C@H](N)[C@@H](O[C@H]2O[C@H](CN)[C@@H](O)[C@H](O)[C@H]2O)[C@H](O)[C@H]1O[C@H]1O[C@H](CO)[C@@H](O)[C@H](N)[C@H]1O` [AMIKACIN] was run?
Its MIC50 is 8 µg/mL (≈ 13.7 µM).

And the MIC90 (Enterobacteriaceae [1])?
Its MIC90 is 32 µg/mL (≈ 54.6 µM).

What about the Activity (Enterobacteriaceae [2]) of the same compound?
The Activity was 73.3%.

And the Activity (Enterobacteriaceae [3])?
The Activity was 8.3%.

What about the MIC50 (Klebsiella sp. [4]) of the same compound?
The MIC50 was 16 µg/mL (≈ 27.3 µM).

And the MIC90 (Klebsiella sp. [4])?
The MIC90 was > 32 µg/mL.

And the Activity (Klebsiella sp. [5])?
Its Activity is 53.3%.

And the Activity (Klebsiella sp. [6])?
The Activity was 13.3%.

What about the MIC50 (Enterobacter sp. [7]) of the same compound?
The MIC50 was 2 µg/mL (≈ 3.42 µM).

And the MIC90 (Enterobacter sp. [7])?
Its MIC90 is 16 µg/mL (≈ 27.3 µM).

And the Activity (Enterobacter sp. [8])?
Its Activity is 95.2%.

What about the Activity (Enterobacter sp. [9]) of the same compound?
Its Activity is 4.8%.

`C[C@@H](O)[C@H]1C(=O)N2C(C(=O)O)=C(SCCNC=N)C[C@H]12` [IMIPENEM ANHYDROUS] was tested. Which MIC50 (Enterobacteriaceae [1]) did it give?
Its MIC50 is 8 µg/mL (≈ 26.7 µM).

And the MIC90 (Enterobacteriaceae [1])?
Its MIC90 is > 8 µg/mL.

And the Activity (Enterobacteriaceae [2])?
The Activity was 37.5%.

And the MIC50 (Klebsiella sp. [4])?
The MIC50 was 8 µg/mL (≈ 26.7 µM).

What about the MIC90 (Klebsiella sp. [4]) of the same compound?
The MIC90 was 16 µg/mL (≈ 53.4 µM).

What about the Activity (Klebsiella sp. [5]) of the same compound?
The Activity was 21.7%.

And the Activity (Klebsiella sp. [6])?
The Activity was 46.7%.

And the MIC50 (Enterobacter sp. [7])?
Its MIC50 is 4 µg/mL (≈ 13.4 µM).

What about the MIC90 (Enterobacter sp. [7]) of the same compound?
Its MIC90 is > 8 µg/mL.

What about the Activity (Enterobacter sp. [8]) of the same compound?
The Activity was 54.2%.

And the Activity (Enterobacter sp. [9])?
The Activity was 17.7%.

`C[C@@H](O)[C@H]1C(=O)N2C(C(=O)O)=C(S[C@@H]3CN[C@H](C(=O)N(C)C)C3)[C@H](C)[C@H]12` [MEROPENEM] was tested. Which MIC50 (Enterobacteriaceae [1]) did it give?
Its MIC50 is 8 µg/mL (≈ 20.9 µM).

And the MIC90 (Enterobacteriaceae [1])?
The MIC90 was > 8 µg/mL.

What about the Activity (Enterobacteriaceae [2]) of the same compound?
The Activity was 32.7%.

And the Activity (Enterobacteriaceae [3])?
Its Activity is 50%.

And the MIC50 (Klebsiella sp. [4])?
The MIC50 was > 8 µg/mL.

What about the MIC90 (Klebsiella sp. [4]) of the same compound?
The MIC90 was > 8 µg/mL.

And the Activity (Klebsiella sp. [5])?
The Activity was 20%.

And the Activity (Klebsiella sp. [6])?
Its Activity is 61.7%.

What about the MIC50 (Enterobacter sp. [7]) of the same compound?
The MIC50 was 8 µg/mL (≈ 20.9 µM).

And the MIC90 (Enterobacter sp. [7])?
The MIC90 was > 8 µg/mL.

And the Activity (Enterobacter sp. [8])?
The Activity was 33.3%.

And the Activity (Enterobacter sp. [9])?
The Activity was 41.7%.

And the MIC (Enterobacteriaceae [10])?
Its MIC is ≥ 2 µg/mL.

And the MIC (Proteus mirabilis)?
Its MIC is ≥ 16 µg/mL.

What does the source list for `CN(C)[C@@H]1C(O)=C(C(N)=O)C(=O)[C@@]2(O)C(O)=C3C(=O)c4c(O)cccc4[C@@](C)(O)[C@H]3C[C@@H]12` [TETRACYCLINE]?
MIC50 (Enterobacteriaceae [1]): 4 µg/mL (≈ 9 µM); MIC90 (Enterobacteriaceae [1]): > 8 µg/mL; Activity (Enterobacteriaceae [2]): 35.6%; Activity (Enterobacteriaceae [3]): 19.2%; MIC50 (Klebsiella sp. [4]): 4 µg/mL (≈ 9 µM); MIC90 (Klebsiella sp. [4]): > 8 µg/mL; Activity (Klebsiella sp. [5]): 66.7%; Activity (Klebsiella sp. [6]): 13.3%; MIC50 (Enterobacter sp. [7]): 4 µg/mL (≈ 9 µM); MIC90 (Enterobacter sp. [7]): > 8 µg/mL; Activity (Enterobacter sp. [8]): 70.8%; Activity (Enterobacter sp. [9]): 20.8%

Which results are given for `CN(C)c1cc(NC(=O)CNC(C)(C)C)c(O)c2c1C[C@H]1C[C@H]3[C@H](N(C)C)C(O)=C(C(N)=O)C(=O)[C@@]3(O)C(O)=C1C2=O` [TIGECYCLINE]?
MIC (Klebsiella pneumoniae [11]): 0.12 µg/mL (≈ 0.205 µM); MIC (Klebsiella oxytoca [12]): 0.25 µg/mL (≈ 0.427 µM); MIC (Klebsiella oxytoca [13]): 0.12 µg/mL (≈ 0.205 µM); MIC (Klebsiella oxytoca [14]): 0.5 µg/mL (≈ 0.854 µM); MIC (Citrobacter freundii [15]): 0.25 µg/mL (≈ 0.427 µM); MIC (Citrobacter freundii [16]): 1 µg/mL (≈ 1.71 µM); MIC (Citrobacter freundii [17]): 0.12 µg/mL (≈ 0.205 µM); MIC (Enterobacter cloacae [18]): 0.12 µg/mL (≈ 0.205 µM); MIC (Enterobacter cloacae [19]): 0.5 µg/mL (≈ 0.854 µM); MIC (Enterobacter cloacae [20]): 0.12 µg/mL (≈ 0.205 µM); MIC (Enterobacter cloacae [21]): 0.25 µg/mL (≈ 0.427 µM); MIC (Enterobacter cloacae [22]): 0.25 µg/mL (≈ 0.427 µM); MIC (Pluralibacter gergoviae): 0.25 µg/mL (≈ 0.427 µM); MIC (Enterobacter hormaechei): 2 µg/mL (≈ 3.41 µM); MIC (Serratia marcescens [23]): 0.5 µg/mL (≈ 0.854 µM); MIC (Serratia marcescens [24]): 0.5 µg/mL (≈ 0.854 µM); MIC (Escherichia coli): 0.12 µg/mL (≈ 0.205 µM); MIC50 (Enterobacteriaceae [1]): 0.5 µg/mL (≈ 0.854 µM); MIC90 (Enterobacteriaceae [1]): 1 µg/mL (≈ 1.71 µM); Activity (Enterobacteriaceae [2]): 100%; Activity (Enterobacteriaceae [3]): 0%; MIC50 (Klebsiella sp. [4]): 1 µg/mL (≈ 1.71 µM); MIC90 (Klebsiella sp. [4]): 2 µg/mL (≈ 3.41 µM); Activity (Klebsiella sp. [5]): 100%; Activity (Klebsiella sp. [6]): 0%; MIC50 (Enterobacter sp. [7]): 0.25 µg/mL (≈ 0.427 µM); MIC90 (Enterobacter sp. [7]): 0.5 µg/mL (≈ 0.854 µM); Activity (Enterobacter sp. [8]): 100%; Activity (Enterobacter sp. [9]): 0%; MIC (Klebsiella pneumoniae [25]): 0.25 µg/mL (≈ 0.427 µM); MIC (Klebsiella pneumoniae [26]): 1 µg/mL (≈ 1.71 µM)

GENTAMICIN was tested. Which MIC50 (Enterobacteriaceae [1]) did it give?
The MIC50 was 4 µg/mL.

What about the MIC90 (Enterobacteriaceae [1]) of the same compound?
Its MIC90 is > 8 µg/mL.

And the Activity (Enterobacteriaceae [2])?
The Activity was 73.3%.

And the MIC50 (Klebsiella sp. [4])?
Its MIC50 is < 2 µg/mL.

And the MIC90 (Klebsiella sp. [4])?
Its MIC90 is > 8 µg/mL.

And the Activity (Klebsiella sp. [5])?
The Activity was 58.3%.

What about the Activity (Klebsiella sp. [6]) of the same compound?
Its Activity is 31.2%.

And the MIC50 (Enterobacter sp. [7])?
Its MIC50 is 8 µg/mL.

What about the MIC90 (Enterobacter sp. [7]) of the same compound?
The MIC90 was > 8 µg/mL.

And the Activity (Enterobacter sp. [8])?
Its Activity is 42.9%.

What about the Activity (Enterobacter sp. [9]) of the same compound?
Its Activity is 38.1%.

With POLYMYXIN B as the compound, how does the MIC50 (Enterobacteriaceae [1]) read?
The MIC50 was < 1 µg/mL.

What about the MIC90 (Enterobacteriaceae [1]) of the same compound?
The MIC90 was 4 µg/mL.

What about the Activity (Enterobacteriaceae [2]) of the same compound?
Its Activity is 88.1%.

What about the Activity (Enterobacteriaceae [3]) of the same compound?
The Activity was 11.9%.

And the MIC50 (Klebsiella sp. [4])?
The MIC50 was < 1 µg/mL.

What about the MIC90 (Klebsiella sp. [4]) of the same compound?
Its MIC90 is < 1 µg/mL.

What about the Activity (Klebsiella sp. [5]) of the same compound?
The Activity was 93.3%.

What about the Activity (Klebsiella sp. [6]) of the same compound?
The Activity was 6.7%.

And the MIC50 (Enterobacter sp. [7])?
Its MIC50 is < 1 µg/mL.

And the MIC90 (Enterobacter sp. [7])?
Its MIC90 is < 1 µg/mL.

And the Activity (Enterobacter sp. [8])?
Its Activity is 95.2%.

What about the Activity (Enterobacter sp. [9]) of the same compound?
The Activity was 4.8%.
